The source of these data is ChEMBL document CHEMBL3600313, “Novel (pyrazolyl)benzenesulfonamides with a nitric oxide-releasing moiety as selective cyclooxygenase-2 inhibitors” (Bioorg Med Chem Lett, 2015).

The target in data set [1] is T1, Prostaglandin G/H synthase 1 (Ovis aries, UniProt P05979).
T1 sequence (P05979 whole entry): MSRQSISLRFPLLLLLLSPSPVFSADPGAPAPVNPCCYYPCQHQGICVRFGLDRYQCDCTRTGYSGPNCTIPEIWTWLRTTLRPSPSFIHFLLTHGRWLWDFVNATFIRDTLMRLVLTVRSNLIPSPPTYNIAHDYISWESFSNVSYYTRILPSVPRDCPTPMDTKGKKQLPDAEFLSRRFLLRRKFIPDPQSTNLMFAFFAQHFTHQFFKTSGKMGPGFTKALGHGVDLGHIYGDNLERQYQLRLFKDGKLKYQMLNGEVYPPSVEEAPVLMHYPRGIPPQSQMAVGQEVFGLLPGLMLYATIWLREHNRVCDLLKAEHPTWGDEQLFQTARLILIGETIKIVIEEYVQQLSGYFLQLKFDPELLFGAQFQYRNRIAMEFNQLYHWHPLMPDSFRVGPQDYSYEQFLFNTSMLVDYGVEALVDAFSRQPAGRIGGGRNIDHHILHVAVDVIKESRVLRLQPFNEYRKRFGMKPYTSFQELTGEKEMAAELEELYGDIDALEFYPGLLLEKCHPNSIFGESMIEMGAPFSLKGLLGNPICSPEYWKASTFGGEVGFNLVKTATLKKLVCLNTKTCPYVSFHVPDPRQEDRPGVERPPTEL
Kind of data set: Inhibition of ovine COX-1 assessed as reduction of prostaglandin-G2 to prostaglandin-H2 and oxidation of 10-acetyl-3,7-dihydroxyphenoxazine to resorufin after 5 mins by fluorescence based assay.

Data set [2] has as its target T2, Prostaglandin G/H synthase 2 (Homo sapiens, UniProt P35354).
T2 sequence (P35354 whole entry): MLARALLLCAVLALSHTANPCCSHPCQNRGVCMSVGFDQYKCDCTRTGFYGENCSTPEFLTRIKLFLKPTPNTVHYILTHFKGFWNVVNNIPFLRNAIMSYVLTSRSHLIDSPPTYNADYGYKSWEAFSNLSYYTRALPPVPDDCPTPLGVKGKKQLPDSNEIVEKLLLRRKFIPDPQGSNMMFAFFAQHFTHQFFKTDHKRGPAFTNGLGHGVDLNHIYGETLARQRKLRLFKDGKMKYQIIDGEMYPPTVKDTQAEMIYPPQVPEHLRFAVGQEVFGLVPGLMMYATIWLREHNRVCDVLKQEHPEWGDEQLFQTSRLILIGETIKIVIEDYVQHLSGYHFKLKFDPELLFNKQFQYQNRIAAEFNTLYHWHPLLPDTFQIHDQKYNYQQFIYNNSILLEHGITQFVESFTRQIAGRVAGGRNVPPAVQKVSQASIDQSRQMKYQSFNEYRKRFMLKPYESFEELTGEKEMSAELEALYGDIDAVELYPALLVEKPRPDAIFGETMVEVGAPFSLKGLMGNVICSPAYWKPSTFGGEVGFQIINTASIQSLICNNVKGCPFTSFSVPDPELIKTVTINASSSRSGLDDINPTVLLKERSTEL
Kind of data set: Inhibition of recombinant human COX-2 assessed as reduction of prostaglandin-G2 to prostaglandin-H2 and oxidation of 10-acetyl-3,7-dihydroxyphenoxazine to resorufin after 5 mins by fluorescence based assay.

The nature of data set [3]: Selectivity index, ratio of IC50 for ovine COX-1 to IC50 for recombinant human COX-2.
For data set [4], the system named is Plasma. The experiment in a line: Nitric oxide release in human plasma using 2,3-diaminonaphthlene at 50 uM after 90 mins by fluorescence assay. As to conditions: 1.5 h. Type of data set: ADME, cell-free.
Data set [5] is described as follows: Nitric oxide release in phosphate-buffered-saline containing K3[Fe(CN)6] using 2,3-diaminonaphthlene at 50 uM after 90 mins by fluorescence assay.
A short description of data set [6]: Nitric oxide release in phosphate-buffered-saline containing L-cysteine using 2,3-diaminonaphthlene at 50 uM after 90 mins by fluorescence assay.
Data set [7] in a line: Chemical stability of the compound in aqueous solution after 9 days by HPLC analysis. As to conditions: buffer, 216 h. Type of data set: physicochemical.
A short description of data set [8]: Nitric oxide release in phosphate-buffered-saline containing human plasma at 50 uM after 90 mins by fluorescence assay in absence of HgCl2.
The nature of data set [9]: Nitric oxide release in phosphate-buffered-saline containing human plasma at 50 uM after 90 mins by fluorescence assay in presence of HgCl2.
Data set [10] in a line: Nitric oxide release in phosphate-buffered-saline using 2,3-diaminonaphthlene at 50 uM after 90 mins by fluorescence assay.
A short description of data set [11]: Nitric oxide release in phosphate-buffered-saline using 2,3-diaminonaphthlene at 50 uM after 90 mins by Griess assay.
For data set [12], the system named is Serum. The experiment in a line: Nitric oxide release in rat serum using 2,3-diaminonaphthlene at 50 uM after 90 mins by Griess assay. The format is ADME, cell-free. As to conditions: 1.5 h.
A short description of data set [13]: Nitric oxide release in phosphate-buffered-saline containing K3[Fe(CN)6] using 2,3-diaminonaphthlene at 50 uM after 90 mins by Griess assay.

Regarding `CC(=O)Oc1ccccc1C(=O)OCCCCO[N+](=O)[O-]`, the IC50 amounted to 65 µM in data set [1] and 45 µM in [2]. Also, the Ratio IC50 in [3] was found to be 1.4. Further, the Activity in data set [4] worked out at 1.4%; in [5], 0.2%; in [6], 0.8%.
On to `Cc1ccc(-c2cc(CO)nn2-c2ccc(S(N)(=O)=O)cc2)cc1`, for which the IC50 in data set [1] was greater than 100 µM; in [2], 1.27 µM. In addition, the Ratio IC50 in data set [3] was greater than 78.7. Moreover, in data set [7], the Stability result was “Stable”.
As to `Cc1ccc(-c2cc(CO[N+](=O)[O-])nn2-c2ccc(S(N)(=O)=O)cc2)cc1`, the IC50 is greater than 100 µM in [1] and 0.89 µM in data set [2]. Further, the Ratio IC50 in [3] is greater than 112. The Activity in data set [4] was 0.3%; in [5], 0.6%; in data set [6], 1.2%; in data set [8], 0%; in [9], 3.5%. Besides, the Stability entry in data set [7] is reported as “Stable”.
Take `Cc1ccc(-c2cc(CCl)nn2-c2ccc(S(N)(=O)=O)cc2)cc1`: the 50% inhibitory concentration (IC50) in data set [1] was greater than 100 µM; in data set [2], 0.97 µM. Moreover, the Ratio IC50 in data set [3] was greater than 103.
In the case of `O=S(=O)(NO)c1ccccc1`, the Activity in data set [10] was 33.5%; in data set [11], 59.7%; in [4], 0.3%; in [12], 3.2%; in [5], 48.3%; in [13] it was 58.4%. The molecule further came in with an Activity in data set [6] of 0.3%.
As for `Cc1ccc(-c2c(Cl)c(CO[N+](=O)[O-])nn2-c2ccc(S(N)(=O)=O)cc2)cc1`, the IC50 in data set [1] is 61 µM; in [2], 0.28 µM. Further, the Ratio IC50 in data set [3] was found to be 218. Besides, the Activity amounted to 0.5% in data set [4], 0.8% in [6], 0% in data set [8] and 3.5% in data set [9].
Consider `Cc1ccc(-c2c(Cl)c(CCl)nn2-c2ccc(S(N)(=O)=O)cc2)cc1`, for which the IC50 was greater than 100 µM in data set [1] and 0.22 µM in data set [2]. The Ratio IC50 in data set [3] was greater than 454.
